Among the data in patent EP3807270B1, “NOVEL HETEROARYL HETEROCYCLYL COMPOUNDS FOR THE TREATMENT OF AUTOIMMUNE DISEASE” (F. Hoffmann-La Roche AG, priority 2018, dated 2019) are IC50 values, retold here.

In this assay the target is T1, hTLR7 (Homo sapiens, UniProt Q9NYK1).
T1 sequence (Q9NYK1 27-1049): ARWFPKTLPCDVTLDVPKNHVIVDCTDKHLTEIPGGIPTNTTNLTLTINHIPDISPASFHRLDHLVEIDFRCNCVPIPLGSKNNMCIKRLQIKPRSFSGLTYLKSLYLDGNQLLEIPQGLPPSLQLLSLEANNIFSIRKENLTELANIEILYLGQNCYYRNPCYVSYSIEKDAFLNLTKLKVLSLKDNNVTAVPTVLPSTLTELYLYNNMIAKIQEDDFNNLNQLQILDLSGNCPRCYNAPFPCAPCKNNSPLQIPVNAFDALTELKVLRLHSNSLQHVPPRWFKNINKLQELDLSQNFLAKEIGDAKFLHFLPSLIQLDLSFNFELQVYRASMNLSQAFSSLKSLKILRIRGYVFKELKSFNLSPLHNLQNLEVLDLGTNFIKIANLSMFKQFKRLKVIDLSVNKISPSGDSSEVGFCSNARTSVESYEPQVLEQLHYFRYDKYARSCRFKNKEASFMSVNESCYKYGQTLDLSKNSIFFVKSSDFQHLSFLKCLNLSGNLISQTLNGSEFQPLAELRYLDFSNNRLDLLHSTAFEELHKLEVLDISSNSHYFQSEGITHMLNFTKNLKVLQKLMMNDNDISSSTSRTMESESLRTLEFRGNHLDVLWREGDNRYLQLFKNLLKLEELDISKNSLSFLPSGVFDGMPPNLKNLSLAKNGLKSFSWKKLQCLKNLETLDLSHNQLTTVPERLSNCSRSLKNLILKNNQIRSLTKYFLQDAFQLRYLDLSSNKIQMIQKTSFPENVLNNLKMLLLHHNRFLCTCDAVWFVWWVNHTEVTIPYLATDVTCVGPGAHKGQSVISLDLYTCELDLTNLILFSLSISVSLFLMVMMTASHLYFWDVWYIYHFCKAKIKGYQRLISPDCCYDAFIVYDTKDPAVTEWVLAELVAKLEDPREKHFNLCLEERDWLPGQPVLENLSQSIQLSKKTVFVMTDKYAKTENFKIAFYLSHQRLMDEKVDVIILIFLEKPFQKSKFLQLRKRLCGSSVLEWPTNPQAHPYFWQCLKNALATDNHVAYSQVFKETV
Put plainly: HEK293-Blue-hTLR-7 cells assay (SEAP reporter, R848 stimulation). The assay is classed as cell-based. More on the design: host or cells: HEK293 (HEK-Blue). As to conditions: HEK293-Blue-hTLR7 cells, R848, 20 hrs; read-out: HEK/hTLR7 IC50. The method in brief:
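HEK293-Blue cells stably expressing human TLR7 with an NF-κB/AP-1-driven SEAP reporter were treated with serially diluted compound (1% DMSO final) plus R848 for 20 h at 37 °C. Supernatant SEAP activity was measured with QUANTI-Blue substrate after 2 h at 37 °C, with absorbance read at 620-655 nm.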

Regarding `C[C@@H]1CN(c2ccc(C#N)c3nccnc23)C[C@H](CN2CCN(c3cc4c(cn3)[C@@H](C)NCC4)CC2)O1` (single isomer, unassigned) [Example 86], the IC50 came to 6 nM. For the compound `C[C@@H]1CN(c2ccc(C#N)c3nccnc23)C[C@H](CN2CCN(c3cc4c(cn3)CCN[C@@H]4C)CC2)O1` (single isomer, unassigned) [Example 87], the IC50 stood at 4 nM. `C[C@@H]1CN(c2ccc(C#N)c3nccnc23)C[C@H](CN2CCN(c3cc4c(cn3)CCN[C@H]4C)CC2)O1` (single isomer, unassigned) [Example 88]: the IC50 came out at 6 nM. `[2H]c1nc2c(C#N)ccc(N3C[C@H](CN4CCN(c5cc6c(cn5)[C@H](C)NCC6)CC4)O[C@H](C)C3)c2nc1[2H]` (single isomer, unassigned) [Example 94]: the IC50 came out at 4 nM. For the compound `[2H]c1nc2c(C#N)ccc(N3C[C@H](CN4CCN(c5cc6c(cn5)[C@@H](C)NCC6)CC4)O[C@H](C)C3)c2nc1[2H]` (single isomer, unassigned) [Example 95], the IC50 amounted to 5 nM. Take `[2H]c1nc2c(C#N)ccc(N3C[C@H](CN4CCN(c5ccc6c(n5)CN[C@H]6C)CC4)O[C@H](C)C3)c2nc1[2H]` (single isomer, unassigned) [Example 96]: the IC50 turned out to be 4 nM. In the case of `[2H]c1nc2c(C#N)ccc(N3C[C@H](CN4CCN(c5ccc6c(n5)CN[C@@H]6C)CC4)O[C@H](C)C3)c2nc1[2H]` (single isomer, unassigned) [Example 97], the IC50 was 7 nM. Consider `[2H]c1ccc2c(N3C[C@H](CN4CCN(c5ccc6c(n5)CN[C@@H]6C)CC4)O[C@H](C)C3)ccc(C#N)c2n1` (single isomer, unassigned) [Example 98], for which the IC50 worked out at 8 nM. For `[2H]c1ccc2c(N3C[C@H](CN4CCN(c5ccc6c(n5)CN[C@H]6C)CC4)O[C@H](C)C3)ccc(C#N)c2n1` (single isomer, unassigned) [Example 99], the IC50 amounted to 11 nM. With `C[C@@H]1CN(c2ccc(C#N)c3ncccc23)C[C@H](CN2CCN(c3ccc4c(c3)CNCC4)CC2)O1` [Example 9, 5-[(2R,6S)-2-methyl-6-[[4-(1,2,3,4-tetrahydroisoquinolin-7-yl)piperazin-1-yl]methyl]morpholin-4-yl]quinoline-8-carbonitrile], the IC50 was 42 nM. `C[C@@H]1CN(c2ccc(C#N)c3ncccc23)C[C@H](CN2CCN(c3cnc4c(c3)CNC4)CC2)O1` [Example 10, 5-[(2S,6R)-2-[[4-(6,7-dihydro-5H-pyrrolo[3,4-b]pyridin-3-yl)piperazin-1-yl]methyl]-6-methyl-morpholin-4-yl] quinoline-8-carbonitrile]: the IC50 came to 35 nM.
